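Five concentrations, 48 hours, 96-well plates. GI50 is the concentration that inhibits growth by half.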 The source made the active and inactive calls. No stated cut-off is given here; in the data, active = GI50 up to about 1.1 µM and inactive = higher.
Tests used:
Test in all cases: NCI anticancer screen, dose series, 48 h
TK-10 = tested on: TK-10
SK-MEL-5 = tested on: SK-MEL-5
OVCAR-4 = tested on: OVCAR-4
COLO 205 = tested on: COLO 205
OVCAR-5 = tested on: OVCAR-5
A498 = tested on: A498
OVCAR-8 = tested on: OVCAR-8
SW-620 = tested on: SW-620
HCT-15 = tested on: HCT-15
UO-31 = tested on: UO-31
ACHN = tested on: ACHN
IGROV-1 = tested on: IGROV-1
SF-539 = tested on: SF-539
SK-MEL-28 = tested on: SK-MEL-28
UACC-257 = tested on: UACC-257
UACC-62 = tested on: UACC-62
CCRF-CEM = tested on: CCRF-CEM
SNB-19 = tested on: SNB-19
HT-29 = tested on: HT-29
NCI-H522 = tested on: NCI-H522

Compound	GI50 (TK-10)	GI50 (SK-MEL-5)	GI50 (OVCAR-4)	GI50 (COLO 205)	GI50 (OVCAR-5)	GI50 (A498)	GI50 (OVCAR-8)	GI50 (SW-620)	GI50 (HCT-15) [µM]	GI50 (UO-31)	GI50 (ACHN)	GI50 (IGROV-1)	GI50 (SF-539)	GI50 (SK-MEL-28)	GI50 (UACC-257)	GI50 (UACC-62)	GI50 (CCRF-CEM)	GI50 (SNB-19)	GI50 (HT-29)	GI50 (NCI-H522)
COc1ccc2[nH]c(C(=O)N3CC(CCl)c4c3cc(N)c3ccccc43)cc2c1 (configuration not stated)	< 0.01 µM (active)	< 0.01 µM (active)	< 0.01 µM (active)	< 0.0105 µM (active)	< 0.01 µM (active)	0.0116 µM (active)	< 0.01 µM (active)	< 0.01 µM (active)	< 0.01	< 0.01 µM (active)	< 0.01 µM (active)	< 0.01 µM (active)	< 0.01 µM (active)	0.0142 µM (active)	0.0119 µM (active)	< 0.01 µM (active)	< 0.01 µM (active)	< 0.0154 µM (active)	< 0.01 µM (active)	
COc1ccc2oc3c(ccc[n+]3C)c(=O)c2c1	> 100 µM (inactive)	> 100 µM (inactive)	> 100 µM (inactive)	> 100 µM (inactive)	> 100 µM (inactive)	> 100 µM (inactive)	> 100 µM (inactive)	> 100 µM (inactive)	> 100	> 100 µM (inactive)	> 100 µM (inactive)	> 100 µM (inactive)	> 100 µM (inactive)	> 100 µM (inactive)		> 100 µM (inactive)	> 100 µM (inactive)	> 100 µM (inactive)	> 100 µM (inactive)	> 100 µM (inactive)
COC1=CC(=O)c2c(c(COC(C)=O)cn2C)C1=O	0.0408 µM (active)	0.118 µM (active)	0.257 µM (active)	0.0282 µM (active)	0.0223 µM (active)	0.244 µM (active)	0.122 µM (active)	0.0249 µM (active)	0.0197	0.159 µM (active)	0.0306 µM (active)	0.184 µM (active)	0.138 µM (active)	0.22 µM (active)	0.334 µM (active)	0.13 µM (active)	0.234 µM (active)	0.345 µM (active)	0.0261 µM (active)	0.0158 µM (active)
O=c1cnn(C/C=C/CP(=O)(O)O)c(=O)[nH]1	> 100 µM (inactive)	> 100 µM (inactive)		80 µM (inactive)	> 100 µM (inactive)	> 100 µM (inactive)	> 100 µM (inactive)	> 100 µM (inactive)	> 100	> 100 µM (inactive)	97.1 µM (inactive)	> 100 µM (inactive)	> 100 µM (inactive)	> 100 µM (inactive)	> 100 µM (inactive)		> 10 µM (inactive)	> 100 µM (inactive)		> 100 µM (inactive)
COc1ccc2c(=O)c(O)c(-c3ccc(OC)c(OC)c3)oc2c1	4.91 µM (inactive)	5.5 µM (inactive)	0.191 µM (active)	28.9 µM (inactive)	20.8 µM (inactive)	4.97 µM (inactive)	3.71 µM (inactive)	4.97 µM (inactive)	3.5	2.47 µM (inactive)	3.54 µM (inactive)	7.45 µM (inactive)		8.53 µM (inactive)	6.76 µM (inactive)	3.23 µM (inactive)	2.36 µM (inactive)	15.8 µM (inactive)	4.92 µM (inactive)	3.13 µM (inactive)
COc1nc(Cl)nc(N[C@H](C)c2c3ccccc3cc3ccccc23)n1	0.807 µM (active)	5.38 µM (inactive)	3.12 µM (inactive)	14.4 µM (inactive)	17.3 µM (inactive)	< 0.01 µM (active)	14.8 µM (inactive)	15.2 µM (inactive)	13.3	16.9 µM (inactive)	17.8 µM (inactive)	6.75 µM (inactive)	17.8 µM (inactive)	2.3 µM (inactive)	16 µM (inactive)	0.628 µM (active)	10.4 µM (inactive)	16.3 µM (inactive)	15.5 µM (inactive)	7.6 µM (inactive)
O=C(Nc1ccc(I)cc1C(=O)NCCO)c1cccs1		> 100 µM (inactive)	> 100 µM (inactive)	> 100 µM (inactive)	> 100 µM (inactive)		> 100 µM (inactive)	> 100 µM (inactive)	> 100	> 100 µM (inactive)	> 100 µM (inactive)	> 100 µM (inactive)	> 100 µM (inactive)	> 100 µM (inactive)	> 100 µM (inactive)	> 100 µM (inactive)	> 100 µM (inactive)	> 100 µM (inactive)	> 100 µM (inactive)	> 100 µM (inactive)
Cc1cccc2sc(-c3ccc(O)cc3)nc12	22.5 µM (inactive)	5.81 µM (inactive)	16 µM (inactive)	14.9 µM (inactive)	16.4 µM (inactive)	3.15 µM (inactive)	16.7 µM (inactive)	11.5 µM (inactive)	12.6	13.6 µM (inactive)	16.5 µM (inactive)	13.7 µM (inactive)	21.5 µM (inactive)	18.5 µM (inactive)	18.8 µM (inactive)	16 µM (inactive)	16.9 µM (inactive)	17.8 µM (inactive)	15.3 µM (inactive)	16.3 µM (inactive)
O=C1CN2Cc3cc(N4CCOCC4)ccc3N=C2N1	> 100 µM (inactive)	27.8 µM (inactive)	67.9 µM (inactive)	32.1 µM (inactive)	87.3 µM (inactive)	91 µM (inactive)	72.9 µM (inactive)	47.1 µM (inactive)	22.9	33.4 µM (inactive)		27.5 µM (inactive)		> 100 µM (inactive)	89.1 µM (inactive)	26.2 µM (inactive)	5.43 µM (inactive)	> 100 µM (inactive)	38 µM (inactive)	
CCN(CC)CCCNC(=O)c1ccccc1Nc1c(Cl)cccc1Cl	11.3 µM (inactive)	2.96 µM (inactive)	7.31 µM (inactive)	12.7 µM (inactive)	11.7 µM (inactive)		15.7 µM (inactive)	13.6 µM (inactive)	12.6	6.79 µM (inactive)	10.2 µM (inactive)	17.6 µM (inactive)	11.4 µM (inactive)	2.94 µM (inactive)	3.03 µM (inactive)	12 µM (inactive)	6.32 µM (inactive)	15.6 µM (inactive)	4.23 µM (inactive)	
Nc1nc(N)nc(-c2ccccc2NS(=O)(=O)c2ccc([N+](=O)[O-])cc2)n1		29 µM (inactive)	44.2 µM (inactive)	17.9 µM (inactive)	> 100 µM (inactive)	> 100 µM (inactive)	40.1 µM (inactive)	> 100 µM (inactive)	> 84.5	> 54.8 µM (inactive)		> 100 µM (inactive)	> 100 µM (inactive)	> 100 µM (inactive)	43 µM (inactive)	> 96.6 µM (inactive)	27.5 µM (inactive)	> 100 µM (inactive)	53.7 µM (inactive)	55.8 µM (inactive)
COc1ccc(CC(CO)NC(=O)OCc2ccccc2)cc1Oc1ccc(CC(CO)NC(=O)OCc2ccccc2)cc1 (configuration not stated)	19.4 µM (inactive)	5.09 µM (inactive)	27.9 µM (inactive)	23.1 µM (inactive)	15 µM (inactive)	15.5 µM (inactive)		32.2 µM (inactive)	29.4	14.3 µM (inactive)		11 µM (inactive)		18.3 µM (inactive)	17 µM (inactive)	11.5 µM (inactive)	5.77 µM (inactive)	19 µM (inactive)	11.1 µM (inactive)	1.47 µM (inactive)

From ChEMBL document CHEMBL1201862, “PubChem BioAssay data set” (2004)
